The structures appear in SMILES notation.

As usually defined, the inhibition is how much of the control response was suppressed.

Test [1] deals with 5-hydroxytryptamine receptor 2B (Homo sapiens, UniProt P41595). As to the kind of experiment: GPCRScan assay: inhibition of 5-HT2B. Set-up: radioligand conc. used [nm] 1.0 – 2.0, parental cells stable HEK.
The target of another test is D(2) dopamine receptor (Homo sapiens, UniProt P14416). The experiment in a line: GPCRScan assay: inhibition of D2. Set-up: radioligand conc. used [nm] 0.4 – 1.0, parental cells stable fibroblast.
Sequence of D(2) dopamine receptor (P14416 whole entry): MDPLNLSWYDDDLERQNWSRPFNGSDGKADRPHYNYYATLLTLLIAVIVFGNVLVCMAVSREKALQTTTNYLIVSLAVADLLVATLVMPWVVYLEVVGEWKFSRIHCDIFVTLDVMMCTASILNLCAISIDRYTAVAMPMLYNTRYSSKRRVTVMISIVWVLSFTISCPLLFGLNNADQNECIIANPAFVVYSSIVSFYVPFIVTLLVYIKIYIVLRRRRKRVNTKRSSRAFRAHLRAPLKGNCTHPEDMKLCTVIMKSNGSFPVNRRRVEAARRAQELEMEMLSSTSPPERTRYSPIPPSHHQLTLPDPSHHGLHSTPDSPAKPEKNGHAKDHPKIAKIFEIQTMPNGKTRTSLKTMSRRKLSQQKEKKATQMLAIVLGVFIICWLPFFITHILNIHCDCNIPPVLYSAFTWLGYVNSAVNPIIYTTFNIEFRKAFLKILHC
Test [2] has as its target 5-hydroxytryptamine receptor 7 (Homo sapiens, UniProt P34969). As to the kind of experiment: GPCRScan assay: inhibition of 5-HT7A. Set-up: radioligand conc. used [nm] 5.0 – 6.0, parental cells Stable HEK.
For test [3], the target named is GABA-A receptor; anion channel (Rattus norvegicus) (UniProt O09028+P15431+P18506+P18508+P19969+P20236+P23574+P23576+P28471+P28473+P30191+P62813+P63079+P63138+Q91ZM7+Q9ES14). The conditions noted are these: Compound concentration 10.0 uM.
Test [4] deals with Phosphatidylinositol 4,5-bisphosphate 3-kinase catalytic subunit gamma isoform (Homo sapiens) (UniProt P48736). The note with it: Compound concentration 1000.0 nM.
Test [5] relates to Proto-oncogene tyrosine-protein kinase receptor Ret (Homo sapiens), P07949 [V804M]. The conditions noted are these: Compound concentration 1000.0 nM.
Test [6] addresses Cyclin-dependent kinase 4 (Homo sapiens) (UniProt P11802). The note with it: Compound concentration 1000.0 nM.
Test [7] has as its target Ribosomal protein S6 kinase alpha-1 (Homo sapiens) (UniProt Q15418). The conditions noted are these: Compound concentration 1000.0 nM.
Test [8] deals with Serine/threonine-protein kinase tousled-like 1 (Homo sapiens) (UniProt Q9UKI8). The note with it: Compound concentration 1000.0 nM.
For test [9], the target named is Inhibitor of nuclear factor kappa-B kinase subunit epsilon (Homo sapiens) (UniProt Q14164). The note with it: Compound concentration 1000.0 nM.
Test [10] deals with LIM domain kinase 1 (Homo sapiens) (UniProt P53667). The conditions noted are these: Compound concentration 1000.0 nM.
The target in test [11] is Mitogen-activated protein kinase 7 (Homo sapiens) (UniProt Q13164). The conditions noted are these: Compound concentration 1000.0 nM.
The target of test [12] is Mitogen-activated protein kinase kinase kinase 9 (Homo sapiens) (UniProt P80192). The note with it: Compound concentration 1000.0 nM.
Sequence of Mitogen-activated protein kinase kinase kinase 9 (Homo sapiens) (P80192 whole entry, looked up): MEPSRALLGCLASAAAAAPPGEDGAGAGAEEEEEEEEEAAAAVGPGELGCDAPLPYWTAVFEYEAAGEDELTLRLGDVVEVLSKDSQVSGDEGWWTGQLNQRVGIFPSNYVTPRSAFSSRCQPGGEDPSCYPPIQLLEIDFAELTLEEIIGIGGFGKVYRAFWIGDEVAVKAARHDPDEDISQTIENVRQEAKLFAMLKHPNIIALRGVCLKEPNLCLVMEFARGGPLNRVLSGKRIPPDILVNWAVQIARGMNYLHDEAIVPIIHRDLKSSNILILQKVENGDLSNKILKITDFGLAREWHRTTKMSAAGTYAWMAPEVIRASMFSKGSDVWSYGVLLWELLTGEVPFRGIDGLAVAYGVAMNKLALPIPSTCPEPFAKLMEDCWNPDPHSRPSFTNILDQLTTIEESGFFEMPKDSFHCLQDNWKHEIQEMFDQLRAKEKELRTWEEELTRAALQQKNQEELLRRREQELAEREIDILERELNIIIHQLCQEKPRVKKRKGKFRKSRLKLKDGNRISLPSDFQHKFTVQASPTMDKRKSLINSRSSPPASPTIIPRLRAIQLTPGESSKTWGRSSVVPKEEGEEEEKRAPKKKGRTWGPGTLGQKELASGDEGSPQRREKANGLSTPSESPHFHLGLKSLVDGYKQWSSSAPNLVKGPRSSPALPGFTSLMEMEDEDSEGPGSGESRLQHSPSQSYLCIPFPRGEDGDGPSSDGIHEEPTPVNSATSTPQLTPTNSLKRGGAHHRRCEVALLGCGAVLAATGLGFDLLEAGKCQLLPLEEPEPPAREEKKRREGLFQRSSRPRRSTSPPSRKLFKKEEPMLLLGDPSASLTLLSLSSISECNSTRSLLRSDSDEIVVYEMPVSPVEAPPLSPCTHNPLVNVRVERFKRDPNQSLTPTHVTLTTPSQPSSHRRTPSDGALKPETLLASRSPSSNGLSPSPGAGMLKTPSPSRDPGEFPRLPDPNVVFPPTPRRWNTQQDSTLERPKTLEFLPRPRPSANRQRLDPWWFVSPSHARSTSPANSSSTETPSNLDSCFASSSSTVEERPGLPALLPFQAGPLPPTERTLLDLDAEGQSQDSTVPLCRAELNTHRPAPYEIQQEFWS
The target of test [13] is Mitogen-activated protein kinase kinase kinase 11 (Homo sapiens) (UniProt Q16584). The conditions noted are these: Compound concentration 1000.0 nM.
For test [14], the target named is Calcium/calmodulin-dependent protein kinase kinase 2 (Homo sapiens) (UniProt Q96RR4). The note with it: Compound concentration 1000.0 nM.
In test [15] the target is Casein kinase I isoform alpha-like (Homo sapiens) (UniProt Q8N752). The conditions noted are these: Compound concentration 1000.0 nM.
Test [16] deals with Cyclin-dependent kinase 16 (Homo sapiens) (UniProt Q00536). The note with it: Compound concentration 1000.0 nM.
Sequence of Cyclin-dependent kinase 16 (Homo sapiens) (Q00536 whole entry): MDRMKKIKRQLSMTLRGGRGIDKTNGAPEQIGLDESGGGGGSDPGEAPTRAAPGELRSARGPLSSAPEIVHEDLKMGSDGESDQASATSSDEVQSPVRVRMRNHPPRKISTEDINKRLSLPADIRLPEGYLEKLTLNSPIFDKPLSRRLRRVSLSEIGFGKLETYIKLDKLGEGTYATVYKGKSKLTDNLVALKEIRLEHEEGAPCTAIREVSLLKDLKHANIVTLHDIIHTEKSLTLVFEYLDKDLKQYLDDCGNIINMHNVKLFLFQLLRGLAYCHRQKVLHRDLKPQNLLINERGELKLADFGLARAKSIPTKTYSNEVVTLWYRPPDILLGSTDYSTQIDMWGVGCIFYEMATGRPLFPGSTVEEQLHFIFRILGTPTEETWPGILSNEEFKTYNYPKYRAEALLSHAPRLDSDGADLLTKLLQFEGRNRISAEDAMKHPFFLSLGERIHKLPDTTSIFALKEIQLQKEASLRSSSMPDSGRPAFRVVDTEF
Test [17] has as its target Tyrosine-protein kinase JAK1 (Homo sapiens) (UniProt P23458). The note with it: Compound concentration 1000.0 nM.
Test [18] deals with Activin receptor type-1-like (Homo sapiens) (UniProt P37023). The conditions noted are these: Compound concentration 1000.0 nM.
Test [19] has as its target Insulin receptor (Homo sapiens) (UniProt P06213). The conditions noted are these: Compound concentration 1000.0 nM.
In test [20] the target is Serine/threonine-protein kinase 17B (Homo sapiens) (UniProt O94768). The conditions noted are these: Compound concentration 1000.0 nM.
Test [21] deals with Serine/threonine-protein kinase Nek4 (Homo sapiens) (UniProt P51957). The note with it: Compound concentration 1000.0 nM.
The subject of test [22] is Tyrosine-protein kinase ABL1 (Homo sapiens), P00519 [F317I]. The conditions noted are these: Compound concentration 1000.0 nM.
Test [23] addresses Protein kinase C eta type (Homo sapiens) (UniProt P24723). The note with it: Compound concentration 1000.0 nM.
Test [24] deals with Mitogen-activated protein kinase kinase kinase kinase 3 (Homo sapiens) (UniProt Q8IVH8). The note with it: Compound concentration 1000.0 nM.
The target of test [25] is Serine/threonine-protein kinase 32A (Homo sapiens) (UniProt Q8WU08). The note with it: Compound concentration 1000.0 nM.
The test system of test [26] is Tyrosine-protein kinase ABL1 (Homo sapiens), P00519 [Y253F]. The conditions noted are these: Compound concentration 1000.0 nM.
In test [27] the target is BMP-2-inducible protein kinase (Homo sapiens) (UniProt Q9NSY1). The note with it: Compound concentration 1000.0 nM.
The target in test [28] is Calcium/calmodulin-dependent protein kinase type 1B (Homo sapiens) (UniProt Q6P2M8). The note with it: Compound concentration 1000.0 nM.
Test [29] addresses Cyclin-dependent kinase 5 (Homo sapiens) (UniProt Q00535). The note with it: Compound concentration 1000.0 nM.
Test [30] concerns the target Phosphatidylinositol 4,5-bisphosphate 3-kinase catalytic subunit delta isoform (Homo sapiens) (UniProt O00329). The conditions noted are these: Compound concentration 1000.0 nM.
For test [31], the system named is Epidermal growth factor receptor (Homo sapiens), P00533 [UNDEFINED MUTATION]. The conditions noted are these: Compound concentration 1000.0 nM.
Sequence of Epidermal growth factor receptor (Homo sapiens), P00533 [UNDEFINED MUTATION] (P00533 whole entry, looked up, change not shown): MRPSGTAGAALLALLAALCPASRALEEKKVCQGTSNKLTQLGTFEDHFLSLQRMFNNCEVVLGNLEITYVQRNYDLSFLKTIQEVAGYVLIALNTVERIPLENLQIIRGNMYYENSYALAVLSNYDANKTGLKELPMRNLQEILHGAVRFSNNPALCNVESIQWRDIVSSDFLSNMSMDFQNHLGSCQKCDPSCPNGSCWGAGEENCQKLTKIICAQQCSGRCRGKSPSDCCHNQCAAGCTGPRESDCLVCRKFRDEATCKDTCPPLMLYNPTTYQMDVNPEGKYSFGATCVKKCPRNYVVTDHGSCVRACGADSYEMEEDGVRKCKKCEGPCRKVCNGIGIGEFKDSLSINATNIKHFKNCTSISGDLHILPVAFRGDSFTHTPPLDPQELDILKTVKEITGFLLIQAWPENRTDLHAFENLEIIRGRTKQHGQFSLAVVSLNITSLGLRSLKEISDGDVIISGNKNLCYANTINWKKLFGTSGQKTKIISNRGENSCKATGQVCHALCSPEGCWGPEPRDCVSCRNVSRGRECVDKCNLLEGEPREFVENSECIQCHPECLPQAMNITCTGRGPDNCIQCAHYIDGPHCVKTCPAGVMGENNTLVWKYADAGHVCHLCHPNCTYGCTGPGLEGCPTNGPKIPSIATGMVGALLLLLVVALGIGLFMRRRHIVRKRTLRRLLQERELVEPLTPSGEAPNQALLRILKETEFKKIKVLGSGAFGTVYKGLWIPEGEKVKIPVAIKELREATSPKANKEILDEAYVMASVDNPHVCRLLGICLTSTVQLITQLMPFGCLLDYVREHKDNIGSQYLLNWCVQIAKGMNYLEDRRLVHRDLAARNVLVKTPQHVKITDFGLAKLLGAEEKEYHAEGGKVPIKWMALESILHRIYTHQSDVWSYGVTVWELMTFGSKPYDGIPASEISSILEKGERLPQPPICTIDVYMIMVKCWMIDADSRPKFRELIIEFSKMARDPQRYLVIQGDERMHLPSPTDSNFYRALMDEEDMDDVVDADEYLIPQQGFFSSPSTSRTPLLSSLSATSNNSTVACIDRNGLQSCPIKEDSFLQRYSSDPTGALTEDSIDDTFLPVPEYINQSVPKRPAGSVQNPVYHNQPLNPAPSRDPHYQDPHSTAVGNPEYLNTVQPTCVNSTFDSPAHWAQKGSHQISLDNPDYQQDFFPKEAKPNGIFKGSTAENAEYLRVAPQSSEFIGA
For test [32], the target named is Vascular endothelial growth factor receptor 2 (Homo sapiens) (UniProt P35968). The conditions noted are these: Compound concentration 1000.0 nM.
Test [33] has as its target Mitogen-activated protein kinase kinase kinase kinase 4 (Homo sapiens) (UniProt O95819). The note with it: Compound concentration 1000.0 nM.
The target of test [34] is Fibroblast growth factor receptor 3 (Homo sapiens) (UniProt P22607). The note with it: Compound concentration 1000.0 nM.
The target in test [35] is STE20/SPS1-related proline-alanine-rich protein kinase (Homo sapiens) (UniProt Q9UEW8). The conditions noted are these: Compound concentration 1000.0 nM.
Test [36] relates to Epidermal growth factor receptor (Homo sapiens), P00533 [UNDEFINED MUTATION]. The note with it: Compound concentration 1000.0 nM. The source holds these as a separate data set.
The target in test [37] is Phosphatidylinositol 5-phosphate 4-kinase type-2 beta (Homo sapiens) (UniProt P78356). The note with it: Compound concentration 1000.0 nM.
Test [38] concerns the target 3-phosphoinositide-dependent protein kinase 1 (Homo sapiens) (UniProt O15530). The conditions noted are these: Compound concentration 1000.0 nM.
Test [39] addresses Serine/threonine-protein kinase DCLK2 (Homo sapiens) (UniProt Q8N568). The conditions noted are these: Compound concentration 1000.0 nM.
Test [40] has as its system Tyrosine-protein kinase ABL1 (Homo sapiens), P00519 [H396P]. The note with it: Compound concentration 1000.0 nM.
In test [41] the target is 1-phosphatidylinositol 3-phosphate 5-kinase (Homo sapiens) (UniProt Q9Y2I7). The conditions noted are these: Compound concentration 1000.0 nM.
In test [42] the target is Serine/threonine-protein kinase TBK1 (Homo sapiens) (UniProt Q9UHD2). The note with it: Compound concentration 1000.0 nM.

Sequence of 5-hydroxytryptamine receptor 7 (P34969 whole entry): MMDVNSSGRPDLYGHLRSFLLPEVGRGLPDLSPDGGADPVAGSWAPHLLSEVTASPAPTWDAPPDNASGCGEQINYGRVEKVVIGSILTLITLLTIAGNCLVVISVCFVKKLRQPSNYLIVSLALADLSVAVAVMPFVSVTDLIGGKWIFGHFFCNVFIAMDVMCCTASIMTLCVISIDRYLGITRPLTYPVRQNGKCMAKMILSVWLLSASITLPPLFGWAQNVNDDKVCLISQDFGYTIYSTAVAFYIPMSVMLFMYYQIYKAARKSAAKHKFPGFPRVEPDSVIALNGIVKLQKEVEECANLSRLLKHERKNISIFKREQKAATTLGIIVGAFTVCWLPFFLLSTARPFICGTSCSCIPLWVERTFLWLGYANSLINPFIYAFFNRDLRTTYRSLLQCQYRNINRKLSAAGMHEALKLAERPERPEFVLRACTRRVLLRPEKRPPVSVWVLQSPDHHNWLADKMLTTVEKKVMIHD
Sequence of 3-phosphoinositide-dependent protein kinase 1 (Homo sapiens) (O15530 whole entry): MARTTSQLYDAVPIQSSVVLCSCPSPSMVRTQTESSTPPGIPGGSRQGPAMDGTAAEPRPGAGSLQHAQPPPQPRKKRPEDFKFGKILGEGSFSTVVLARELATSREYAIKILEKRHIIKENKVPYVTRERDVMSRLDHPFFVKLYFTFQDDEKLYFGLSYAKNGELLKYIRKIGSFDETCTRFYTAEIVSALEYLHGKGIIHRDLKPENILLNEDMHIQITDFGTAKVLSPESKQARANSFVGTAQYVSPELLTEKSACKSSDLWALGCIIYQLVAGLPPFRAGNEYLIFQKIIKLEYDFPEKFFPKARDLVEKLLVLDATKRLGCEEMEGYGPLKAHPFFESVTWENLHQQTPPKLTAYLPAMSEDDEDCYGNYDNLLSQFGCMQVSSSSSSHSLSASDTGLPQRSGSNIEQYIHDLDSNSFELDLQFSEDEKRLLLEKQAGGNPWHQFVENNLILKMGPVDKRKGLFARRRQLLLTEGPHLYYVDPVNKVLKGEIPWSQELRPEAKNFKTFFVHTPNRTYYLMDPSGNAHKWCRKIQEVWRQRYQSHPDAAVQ
Sequence of Serine/threonine-protein kinase DCLK2 (Homo sapiens) (Q8N568 whole entry): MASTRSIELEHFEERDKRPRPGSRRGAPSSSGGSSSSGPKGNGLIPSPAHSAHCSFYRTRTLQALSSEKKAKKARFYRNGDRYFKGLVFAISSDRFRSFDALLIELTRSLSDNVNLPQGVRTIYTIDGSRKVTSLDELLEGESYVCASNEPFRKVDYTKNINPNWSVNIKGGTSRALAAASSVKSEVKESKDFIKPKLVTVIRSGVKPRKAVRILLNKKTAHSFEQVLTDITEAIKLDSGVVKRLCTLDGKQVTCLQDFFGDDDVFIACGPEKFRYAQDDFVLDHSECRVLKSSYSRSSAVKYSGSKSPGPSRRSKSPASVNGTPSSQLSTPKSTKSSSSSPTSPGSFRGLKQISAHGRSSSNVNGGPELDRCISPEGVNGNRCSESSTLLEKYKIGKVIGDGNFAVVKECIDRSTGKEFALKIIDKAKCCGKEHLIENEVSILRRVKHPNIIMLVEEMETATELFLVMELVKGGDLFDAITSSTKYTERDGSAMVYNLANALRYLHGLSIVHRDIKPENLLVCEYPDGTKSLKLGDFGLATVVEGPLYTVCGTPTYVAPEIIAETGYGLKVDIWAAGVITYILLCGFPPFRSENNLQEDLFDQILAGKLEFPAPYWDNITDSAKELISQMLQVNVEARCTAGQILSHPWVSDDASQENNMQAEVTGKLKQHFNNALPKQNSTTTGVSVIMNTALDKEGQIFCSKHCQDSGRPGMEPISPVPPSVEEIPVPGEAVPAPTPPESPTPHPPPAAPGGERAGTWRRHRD

In the case of `CC(C)(C)OC(=O)N1CCCC1CNC1CCC(c2cc(F)ccc2F)(S(=O)(=O)c2ccc(Cl)cc2)CC1` (centres undefined) [GSI-NC], the Ki was 21 nM in [1], 1220 nM on D(2) dopamine receptor, 826 nM in [2] (read-out: Ki) and 851 nM in test [2] (read-out: pKi (converted)). Besides, the inhibition in test [3] is 11%.

Turning to `O=S(=O)(NC1CCC(c2cc(F)ccc2F)(S(=O)(=O)c2ccc(Cl)cc2)CC1)C(F)(F)F` (centres undefined) [MRK-560], the residual activity was 100% in test [4]; 100% in test [5]; 100% in [6]; 90% in [7]; 100% in [8]; 0% in test [9]. For the same compound, the residual activity is 86% in test [10]; 92% in [11]; 98% in test [12]; 100% in [13]; 100% in test [14]; 100% in [15]. For the same compound, the residual activity was 68% in test [16]; 100% in test [17]; 100% in test [18]; 95% in [19]; 97% in [20]; 100% in test [21]. Also, the residual activity was 100% in test [22]; 99% in test [23]; 100% in [24]; 97% in [25]; 100% in [26]; 92% in test [27]. Moreover, the residual activity in [28] is 100%; in test [29] it was 100%; in [30], 100%; in test [31], 100%; in test [32], 100%; in test [33], 71%. Also, the residual activity in [34] is 90%; in test [35] it was 100%; in [36] it was 100%; in test [37] it was 68%; in test [38], 100%; in [39], 94%. The residual activity in test [40] was 100%; in test [41], 60%; in [42] it was 100%.
